These results are taken from publication PMC7026418, “The kinase polypharmacology landscape of clinical PARP inhibitors” (Scientific Reports, 2020).

Some targets named below: PDGFRB (Homo sapiens, UniProt P09619); MARK2 (Homo sapiens, UniProt Q7KZI7); PIK3CA (Homo sapiens, UniProt P42336); WEE1 (Homo sapiens, UniProt P30291); PIKFYVE (Homo sapiens, UniProt Q9Y2I7).
What all share (experiment): biochemical
What all share (set-up): DiscoveRx KINOMEscan active site-directed competition binding; percent of control kinase bound to immobilised ligand

In another assay the target is T1, TLK1 (Homo sapiens, UniProt Q9UKI8).
T1 sequence (Q9UKI8 1-766): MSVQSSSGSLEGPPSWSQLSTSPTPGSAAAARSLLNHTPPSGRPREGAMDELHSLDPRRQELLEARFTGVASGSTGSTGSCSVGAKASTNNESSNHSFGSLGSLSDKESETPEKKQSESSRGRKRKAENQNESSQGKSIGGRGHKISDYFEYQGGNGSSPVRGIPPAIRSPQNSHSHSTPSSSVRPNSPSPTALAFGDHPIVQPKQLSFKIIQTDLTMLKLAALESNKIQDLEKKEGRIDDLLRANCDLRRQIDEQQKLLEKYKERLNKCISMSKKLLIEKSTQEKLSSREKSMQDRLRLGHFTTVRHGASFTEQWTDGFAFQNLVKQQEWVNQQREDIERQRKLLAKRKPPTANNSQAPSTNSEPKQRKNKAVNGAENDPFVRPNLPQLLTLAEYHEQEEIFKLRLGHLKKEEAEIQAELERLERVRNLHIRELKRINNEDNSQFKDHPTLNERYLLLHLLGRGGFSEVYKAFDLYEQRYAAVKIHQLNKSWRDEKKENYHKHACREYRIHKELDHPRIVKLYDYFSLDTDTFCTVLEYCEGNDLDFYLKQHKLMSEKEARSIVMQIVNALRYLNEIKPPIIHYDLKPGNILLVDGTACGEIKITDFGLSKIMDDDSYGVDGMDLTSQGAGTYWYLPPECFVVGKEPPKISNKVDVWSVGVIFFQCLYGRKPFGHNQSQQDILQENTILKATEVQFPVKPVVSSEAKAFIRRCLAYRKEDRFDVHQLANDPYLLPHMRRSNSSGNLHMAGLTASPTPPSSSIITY

The target in the next assay is T2, S6K1 (Homo sapiens, UniProt P23443).
T2 construct: gene RPS6KB1

The target of another assay is T3, MAP4K3 (Homo sapiens, UniProt Q8IVH8).
T3 sequence (Q8IVH8 1-894): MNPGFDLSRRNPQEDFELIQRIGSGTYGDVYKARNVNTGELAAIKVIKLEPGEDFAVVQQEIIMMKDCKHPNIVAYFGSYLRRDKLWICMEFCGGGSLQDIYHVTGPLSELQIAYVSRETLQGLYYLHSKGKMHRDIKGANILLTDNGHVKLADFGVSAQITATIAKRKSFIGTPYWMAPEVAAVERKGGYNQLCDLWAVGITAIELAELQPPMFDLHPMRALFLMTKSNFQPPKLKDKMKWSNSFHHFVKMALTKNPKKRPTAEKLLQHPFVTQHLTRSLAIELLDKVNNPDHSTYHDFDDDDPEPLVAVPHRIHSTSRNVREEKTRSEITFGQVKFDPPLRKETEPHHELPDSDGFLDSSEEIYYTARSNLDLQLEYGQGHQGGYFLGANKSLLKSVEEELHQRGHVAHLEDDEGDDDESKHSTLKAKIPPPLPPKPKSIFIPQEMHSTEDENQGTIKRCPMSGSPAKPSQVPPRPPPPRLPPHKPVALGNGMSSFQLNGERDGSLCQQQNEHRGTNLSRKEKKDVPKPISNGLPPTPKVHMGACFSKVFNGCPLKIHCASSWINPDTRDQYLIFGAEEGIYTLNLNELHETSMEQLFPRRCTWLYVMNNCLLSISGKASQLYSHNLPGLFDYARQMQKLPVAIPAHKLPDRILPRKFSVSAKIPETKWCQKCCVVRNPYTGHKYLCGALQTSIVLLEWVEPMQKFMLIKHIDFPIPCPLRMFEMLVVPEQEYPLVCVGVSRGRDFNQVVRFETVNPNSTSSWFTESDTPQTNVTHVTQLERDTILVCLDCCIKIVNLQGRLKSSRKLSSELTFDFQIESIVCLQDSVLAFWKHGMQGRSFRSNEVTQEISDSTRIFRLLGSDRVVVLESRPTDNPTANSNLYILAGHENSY

In another assay the target is T4, FLT3(ITD) (Homo sapiens, UniProt P36888, ITD).
T4 sequence (P36888 564-993): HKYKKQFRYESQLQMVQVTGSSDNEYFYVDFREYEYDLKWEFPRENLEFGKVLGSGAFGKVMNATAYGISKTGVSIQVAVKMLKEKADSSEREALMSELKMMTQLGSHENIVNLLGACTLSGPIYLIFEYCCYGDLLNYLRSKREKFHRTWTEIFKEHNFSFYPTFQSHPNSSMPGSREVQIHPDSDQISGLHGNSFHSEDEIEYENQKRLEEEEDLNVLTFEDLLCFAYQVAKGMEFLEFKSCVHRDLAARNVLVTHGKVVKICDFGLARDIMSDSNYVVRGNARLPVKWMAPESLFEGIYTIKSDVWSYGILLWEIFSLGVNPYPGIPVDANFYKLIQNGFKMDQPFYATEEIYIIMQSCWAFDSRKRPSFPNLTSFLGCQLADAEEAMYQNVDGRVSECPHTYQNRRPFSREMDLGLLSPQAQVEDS

Where [1] appears, read: read-out: Niraparib (MK-4827) / %Ctrl @ 10000nM.
Setting [2] is: read-out: Olaparib / %Ctrl @ 10000nM.
Where [3] appears, read: read-out: Rucaparib / %Ctrl @ 10000nM, binding competition, % of control.
Setting [4] is: read-out: Talazoparib (BMN 673) / %Ctrl @ 10000nM.

Molecules are shown by their SMILES. Read-outs that look alike come from different tables or passages of the source.

PIK3CA, sequence (P42336 whole entry): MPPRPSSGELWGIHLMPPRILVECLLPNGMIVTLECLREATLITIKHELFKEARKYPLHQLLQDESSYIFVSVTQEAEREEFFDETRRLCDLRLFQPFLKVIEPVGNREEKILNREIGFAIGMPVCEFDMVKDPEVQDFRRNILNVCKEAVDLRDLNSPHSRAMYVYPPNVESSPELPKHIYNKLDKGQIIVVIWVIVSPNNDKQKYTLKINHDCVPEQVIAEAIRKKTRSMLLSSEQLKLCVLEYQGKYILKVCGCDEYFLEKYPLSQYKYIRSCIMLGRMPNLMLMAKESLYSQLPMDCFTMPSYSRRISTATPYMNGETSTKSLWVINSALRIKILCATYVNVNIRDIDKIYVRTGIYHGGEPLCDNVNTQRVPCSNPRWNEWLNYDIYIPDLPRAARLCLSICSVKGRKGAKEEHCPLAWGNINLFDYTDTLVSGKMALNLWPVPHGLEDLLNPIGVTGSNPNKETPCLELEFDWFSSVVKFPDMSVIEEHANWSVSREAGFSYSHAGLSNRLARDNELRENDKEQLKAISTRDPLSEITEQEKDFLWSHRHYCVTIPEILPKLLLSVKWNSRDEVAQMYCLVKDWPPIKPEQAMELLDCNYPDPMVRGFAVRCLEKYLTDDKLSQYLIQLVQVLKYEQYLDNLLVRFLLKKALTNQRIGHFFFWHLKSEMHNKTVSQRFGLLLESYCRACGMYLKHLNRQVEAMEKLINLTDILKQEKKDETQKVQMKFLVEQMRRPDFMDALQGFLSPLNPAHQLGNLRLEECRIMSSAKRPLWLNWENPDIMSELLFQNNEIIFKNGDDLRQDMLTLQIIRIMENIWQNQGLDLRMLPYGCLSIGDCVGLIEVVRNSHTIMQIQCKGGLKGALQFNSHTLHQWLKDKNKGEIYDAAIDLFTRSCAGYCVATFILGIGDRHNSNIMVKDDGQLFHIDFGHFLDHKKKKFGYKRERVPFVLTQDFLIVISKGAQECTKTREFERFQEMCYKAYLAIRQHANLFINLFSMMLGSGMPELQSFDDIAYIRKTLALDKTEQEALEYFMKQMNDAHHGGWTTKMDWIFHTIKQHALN
MARK2, sequence (Q7KZI7 whole entry): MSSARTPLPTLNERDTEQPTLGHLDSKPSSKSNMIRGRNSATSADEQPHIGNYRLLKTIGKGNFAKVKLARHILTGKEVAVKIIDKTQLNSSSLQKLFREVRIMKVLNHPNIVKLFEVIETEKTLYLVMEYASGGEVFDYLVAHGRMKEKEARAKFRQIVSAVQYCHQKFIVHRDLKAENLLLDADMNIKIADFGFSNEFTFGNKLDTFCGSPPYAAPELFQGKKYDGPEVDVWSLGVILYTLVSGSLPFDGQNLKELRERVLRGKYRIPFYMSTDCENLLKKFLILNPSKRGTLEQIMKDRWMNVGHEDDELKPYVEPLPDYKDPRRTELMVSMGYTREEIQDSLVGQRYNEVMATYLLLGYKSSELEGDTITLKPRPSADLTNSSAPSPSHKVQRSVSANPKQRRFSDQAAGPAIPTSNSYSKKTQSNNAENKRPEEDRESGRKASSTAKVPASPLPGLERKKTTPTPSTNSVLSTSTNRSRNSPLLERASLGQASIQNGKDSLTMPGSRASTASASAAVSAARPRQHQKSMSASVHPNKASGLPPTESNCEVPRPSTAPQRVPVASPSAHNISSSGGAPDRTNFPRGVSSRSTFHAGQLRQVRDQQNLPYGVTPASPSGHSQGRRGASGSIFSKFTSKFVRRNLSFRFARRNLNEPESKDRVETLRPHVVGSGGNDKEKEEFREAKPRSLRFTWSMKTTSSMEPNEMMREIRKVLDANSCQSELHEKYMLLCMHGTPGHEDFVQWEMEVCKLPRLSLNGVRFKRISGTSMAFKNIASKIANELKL
PDGFRB, sequence (P09619 whole entry): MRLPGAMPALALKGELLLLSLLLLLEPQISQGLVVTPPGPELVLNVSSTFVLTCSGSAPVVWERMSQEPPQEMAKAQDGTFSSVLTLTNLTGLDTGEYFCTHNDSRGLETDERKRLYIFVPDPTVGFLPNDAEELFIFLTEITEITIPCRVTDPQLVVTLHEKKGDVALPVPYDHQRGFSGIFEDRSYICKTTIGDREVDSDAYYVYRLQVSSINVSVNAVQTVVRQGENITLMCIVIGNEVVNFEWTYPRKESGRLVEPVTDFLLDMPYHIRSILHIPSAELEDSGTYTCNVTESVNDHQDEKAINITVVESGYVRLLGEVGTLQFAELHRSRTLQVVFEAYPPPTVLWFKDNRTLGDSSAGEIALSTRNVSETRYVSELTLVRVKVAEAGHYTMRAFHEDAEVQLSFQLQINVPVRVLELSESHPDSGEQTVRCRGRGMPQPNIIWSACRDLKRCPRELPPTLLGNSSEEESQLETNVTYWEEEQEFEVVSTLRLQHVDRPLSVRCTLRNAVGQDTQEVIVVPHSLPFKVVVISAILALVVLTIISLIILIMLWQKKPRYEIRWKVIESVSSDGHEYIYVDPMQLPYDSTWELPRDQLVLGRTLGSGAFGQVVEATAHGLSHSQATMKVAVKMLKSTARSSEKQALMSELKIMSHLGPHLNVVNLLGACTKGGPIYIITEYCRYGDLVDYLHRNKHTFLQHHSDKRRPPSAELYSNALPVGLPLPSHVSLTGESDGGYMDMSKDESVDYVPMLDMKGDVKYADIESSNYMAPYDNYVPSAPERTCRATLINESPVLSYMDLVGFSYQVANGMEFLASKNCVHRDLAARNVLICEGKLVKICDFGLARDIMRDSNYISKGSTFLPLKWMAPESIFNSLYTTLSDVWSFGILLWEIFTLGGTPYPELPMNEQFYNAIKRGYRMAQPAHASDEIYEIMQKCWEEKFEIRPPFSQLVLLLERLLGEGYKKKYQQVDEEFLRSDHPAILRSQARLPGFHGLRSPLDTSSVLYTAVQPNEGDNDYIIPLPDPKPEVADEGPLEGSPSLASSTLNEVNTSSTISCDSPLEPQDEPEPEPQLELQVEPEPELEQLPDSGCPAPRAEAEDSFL
WEE1, sequence (P30291 whole entry): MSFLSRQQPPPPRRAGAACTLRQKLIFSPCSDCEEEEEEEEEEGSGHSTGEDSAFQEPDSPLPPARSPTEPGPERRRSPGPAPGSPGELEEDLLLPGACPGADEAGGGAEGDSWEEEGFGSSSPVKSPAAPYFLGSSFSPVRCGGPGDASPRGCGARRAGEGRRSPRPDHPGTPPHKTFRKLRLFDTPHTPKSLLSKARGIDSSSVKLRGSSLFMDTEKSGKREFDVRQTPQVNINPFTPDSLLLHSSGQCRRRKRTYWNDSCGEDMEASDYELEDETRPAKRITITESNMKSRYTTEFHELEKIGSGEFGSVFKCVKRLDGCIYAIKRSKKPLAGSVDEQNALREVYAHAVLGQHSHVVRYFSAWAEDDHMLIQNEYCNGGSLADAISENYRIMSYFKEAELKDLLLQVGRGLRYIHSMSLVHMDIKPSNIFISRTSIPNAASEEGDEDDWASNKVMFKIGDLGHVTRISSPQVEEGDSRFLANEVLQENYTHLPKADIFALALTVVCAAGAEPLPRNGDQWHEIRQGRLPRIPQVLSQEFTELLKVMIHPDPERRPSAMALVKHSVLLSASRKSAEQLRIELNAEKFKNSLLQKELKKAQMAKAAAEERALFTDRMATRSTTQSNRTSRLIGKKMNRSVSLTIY
T2 sequence (P23443 whole entry): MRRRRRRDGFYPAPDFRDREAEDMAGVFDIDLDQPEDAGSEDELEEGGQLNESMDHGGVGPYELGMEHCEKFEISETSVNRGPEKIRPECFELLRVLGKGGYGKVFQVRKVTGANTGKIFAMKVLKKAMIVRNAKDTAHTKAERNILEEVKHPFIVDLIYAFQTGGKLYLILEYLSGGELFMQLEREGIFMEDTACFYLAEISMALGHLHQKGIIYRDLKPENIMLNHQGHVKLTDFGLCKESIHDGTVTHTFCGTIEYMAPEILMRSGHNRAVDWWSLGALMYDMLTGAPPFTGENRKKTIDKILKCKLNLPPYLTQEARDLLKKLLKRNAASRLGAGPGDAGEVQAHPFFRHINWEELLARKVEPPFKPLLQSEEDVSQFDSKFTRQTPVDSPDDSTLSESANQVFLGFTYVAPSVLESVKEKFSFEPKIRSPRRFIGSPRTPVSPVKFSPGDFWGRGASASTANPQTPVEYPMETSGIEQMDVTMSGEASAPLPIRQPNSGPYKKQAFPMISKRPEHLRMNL

On to `NC(=O)c1cccc2cn(-c3ccc([C@@H]4CCCNC4)cc3)nc12` [Niraparib], for which the percent of control binding at 10 µM on PDGFRB (setting [1]) was 90%; on MARK2 (setting [1]) it was 75%; on PIK3CA (setting [1]), 100%; at WEE1 (setting [1]) it was 100%; at TLK1 (setting [1]), 85%; at S6K1 (setting [1]), 94%. For the same compound, the percent of control binding at 10 µM on PIKFYVE (setting [1]) came out at 75%; at MAP4K3 (setting [1]) it was 84%; at FLT3(ITD) (setting [1]), 92%.

Turning to `O=C(c1cc(Cc2n[nH]c(=O)c3ccccc23)ccc1F)N1CCN(C(=O)C2CC2)CC1` [Olaparib], the percent of control binding at 10 µM on PDGFRB (setting [2]) was determined as 96%; on MARK2 (setting [2]), 100%; on PIK3CA (setting [2]), 87%; on WEE1 (setting [2]) it was 100%; on TLK1 (setting [2]), 94%; at S6K1 (setting [2]), 73%. Also, the percent of control binding at 10 µM at PIKFYVE (setting [2]), at MAP4K3 (setting [2]) and on FLT3(ITD) (setting [2]) was 100% each time.

Turning to `CNCc1ccc(-c2[nH]c3cc(F)cc4c3c2CCNC4=O)cc1` [Rucaparib], the percent of control binding at 10 µM on PDGFRB (setting [3]) stood at 98%; at MARK2 (setting [3]), 92%; on PIK3CA (setting [3]), 91%; at WEE1 (setting [3]), 92%; at TLK1 (setting [3]) it was 94%; on S6K1 (setting [3]), 60%. The percent of control binding at 10 µM stood at 92% on PIKFYVE (setting [3]) and 91% at MAP4K3 (setting [3]).

Turning to `Cn1ncnc1[C@H]1c2n[nH]c(=O)c3cc(F)cc(c23)N[C@@H]1c1ccc(F)cc1` [Talazoparib], the percent of control binding at 10 µM on PDGFRB (setting [4]) is 99%; on MARK2 (setting [4]) it was 100%; on PIK3CA (setting [4]) it was 59%; on WEE1 (setting [4]), 100%; at TLK1 (setting [4]) it was 99%; at S6K1 (setting [4]), 62%. For the same compound, the percent of control binding at 10 µM on PIKFYVE (setting [4]) was 80%; on MAP4K3 (setting [4]), 100%; at FLT3(ITD) (setting [4]), 100%.
